Source: US10117866B2, “Promoting axon regeneration in the adult CNS through control of protein translation” (CHILDREN'S MEDICAL CENTER CORPORATION, priority 2008, dated 2018)

Columns and labels:
PTEN = PTEN (Homo sapiens, UniProt P60484); assay: PTEN inhibition assay (malachite green phosphate release), IC50 determination; type: biochemical
Description: PTEN inhibitors are evaluated in an inhibition assay conducted in half-volume 96 well plates in 25 ul total volume per well containing 2 mM dithiothreitol (DTT) and 0.1 mM Tris buffer, pH 8.0 and up to 3 ug total protein of PTEN. Small volumes of the test inhibitor candidates (stock concentrated solutions of 25 mM in DMSO) are mixed with the PTEN solution at room temperature for about 10 minutes and then substrate is added. The reaction mix is then incubated in 37° C. for 20 minutes. Subsequent to this a 100 ul aliquot of malachite green buffer (Upstate, Charlottesville, Va.) is added to develop the color in the dark at room temperature (this solution also stops the dephosphorylation reaction). A SpectraMax Plus spectrophotometric plate reader (Molecular Devices, Sunnyvale, Calif.) is used to measure the optical density at 650 nanometers. […]
To determine the dose response of potential PTEN inhibitors, doses of test compounds ranging from 1 nM to 250 uM (final reaction mix concentrations) are evaluated in the general PTEN inhibition assay (supra). […] Once the concentration range is determined, at which PTEN activity changes dramatically, two additional concentration data points within this range are added and the PTEN inhibition assay is then rerun for the second round. […]

[1] = system: dorsal corticospinal tract (CST) axons; assay: Spinal injury (dorsal corticospinal tract transection) in rats, intrathecal or intravenous PTEN inhibitor; type: in vivo, Sprague Dawley rats; settings: intrathecal or intravenous administration, rat spinal injury model
Description: Methodology for this animal study was adapted from Nash et al (J. Neurosci (2002) 22:7111-7120), Luo et al (Molecular Pain (2005) 1:29), and Obata et al (J. Neurosci. (2004) 24:10211-22).
Adult Sprague Dawley rats ([…]) are trained and tested in a directed forepaw reaching (DFR) apparatus which measures grasping ability. The apparatus, which is described in detail by Nash et al., supra, is a box that consists of two compartments: a main compartment for housing the rats and a minor compartment for the food, separated by a PLEXIGLAS™ divider. The minor compartment is subdivided into slots of equal size, each holding a pellet of food. Between the slots and the PLEXIGLAS™ there is a gap. The apparatus is configured such that in order to retrieve a food pellet from a slot, a rat must extend a forelimb through a hole in the PLEXIGLAS™ divider, and grasp the pellet and lift it over the gap and out of the slot. If the rat merely rakes the food in the slot towards the hole in the PLEXIGLAS™, the food will drop from the slot into the gap and fall to the floor of the minor compartment. The floor of the minor compartment can be configured to allow a rat to retrieve food that drops or it can be lowered to prevent the rat from reaching dropped food. Prior to inducing spinal injury, the rats are food restricted, receiving ˜[…] body weight per day, before and throughout training and testing. Weight is monitored to ensure that rats are reduced to no less than 80% of their original body weight at any time. All rats are given shaping periods for 2-3 d in the box to allow them to learn the task while they become familiar with the testing situation. Animals are trained twice per day for 5 d and then tested twice per day for 5 d, and presurgical DFR data is collected. During the testing period, rats are given 5 min to complete the task and are allowed to make as many attempts as they want during this time period. Rats are required to return to at least 95% of their original weight to ensure that they are healthy before undergoing surgery.
Rats are randomly assigned to control or experimental groups. Sham control rats undergo surgical procedure without lesioning, and with or without placement of a mini osmotic pump (Alzet type 2001; Durect, Cupertino, Calif.). Lesioned control rats receive no treatment, tail vein injection with vehicle only treatment, insertion of a mini osmotic pump only treatment, or insertion of a mini osmotic pump with vehicle only treatment. After anesthesia with isoflurane, the rats are placed on an operating board in such a way as to bend the cervical spinal cord for maximum exposure. A laminectomy is performed exposing the dorsum of the spinal cord between C2 and C4. […]

PTEN, sequence (P60484 whole entry, species assumed): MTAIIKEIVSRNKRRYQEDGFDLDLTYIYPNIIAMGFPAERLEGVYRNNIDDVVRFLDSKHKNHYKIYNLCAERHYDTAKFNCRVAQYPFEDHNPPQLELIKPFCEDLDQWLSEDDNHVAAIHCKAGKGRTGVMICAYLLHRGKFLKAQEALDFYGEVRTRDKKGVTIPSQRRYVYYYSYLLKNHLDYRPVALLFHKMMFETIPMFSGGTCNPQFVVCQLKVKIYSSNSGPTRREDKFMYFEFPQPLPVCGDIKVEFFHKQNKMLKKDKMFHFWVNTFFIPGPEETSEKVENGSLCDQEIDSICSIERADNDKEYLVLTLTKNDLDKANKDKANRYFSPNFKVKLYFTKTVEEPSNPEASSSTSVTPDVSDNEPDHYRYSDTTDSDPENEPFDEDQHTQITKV

Row | Compound | IC50 (PTEN) | axonal regeneration after spinal injury [1]
1 | CC(C)(C)C(=O)Nc1cnc2c(c1)C(=O)C(=O)c1cccnc1-2 | 2000 nM | 
2 | O=C(COc1ccccc1)Nc1cnc2c(c1)C(=O)C(=O)c1cccnc1-2 | 300 nM | 
3 | O.O.O.OO.OO.[K+].[OH-].[V].c1cnc2c(c1)ccc1cccnc12 [bpV(phen), potassium bisperoxo(1,10-phenanthroline)oxovanadate (V)] |  | can be promoted
4 | O.O.O=C([O-])c1ccccn1.OO.OO.[K+].[K+].[OH-].[V] [bpV(pic), dipotassium bisperoxo(picolinato)oxovanadate (V)] |  | can be promoted
5 | dipotassium bisperoxo(5-hydroxypyridine-2-carboxyl)oxovanadate (V) [bpV(HOpic)] |  | can be promoted
6 | potassium bisperoxo(bipyridine)oxovanadate (V) [bpV(bipy)] |  | can be promoted
